# Source: patent US10654832B2, “3-(benzoimidazol-2-YL)-indazole inhibitors of the Wnt signaling pathway and therapeutic uses thereof” (Samumed, LLC, priority 2013, dated 2020)
# Tested on: Wnt activity (wnt-responsive SP5 promoter luciferase reporter in SW480 cells)
# Experiment: Wnt activity reporter assay (SP5 promoter-firefly luciferase in SW480 cells)
# Format: cell-based
# Conditions: Homo sapiens; SW480 colon cancer cells with SP5 promoter luciferase reporter; 24 h after compound addition; half-log dilutions, three micromolar top concentration; normalized to DMSO; read-out: Wnt inhibition
# Method in brief: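 SW480 cells (APC-mutant) stably carried a lentiviral SP5-promoter (eight TCF/LEF sites) firefly luciferase reporter. Signals were normalized to DMSO-only cells to derive IC50.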
row,Structure (SMILES),IC50 [µM]
1,"c1ccc(CNCc2cncc(-c3ccc4[nH]nc(-c5nc6ccccc6[nH]5)c4c3)c2)cc1 [Compound 239, 1-(5-(3-(1H-Benzo[d]imidazol-2-yl)-1H-indazol-5-yl)pyridin-3-yl)-N-benzylmethanamine]",0.372
2,"CCNCc1cncc(-c2ccc3[nH]nc(-c4nc5c(-c6ccsc6)cccc5[nH]4)c3c2)c1 [Compound 246, N-((5-(3-(4-(Thiophen-3-yl)-1H-benzo[d]imidazol-2-yl)-1H-indazol-5-yl)pyridin-3-yl)methyl)ethanamine]",0.014
3,"CC(C)C(=O)Nc1cncc(-c2ccc3[nH]nc(-c4nc5c(-c6ccsc6)cccc5[nH]4)c3c2)c1 [Compound 249, N-(5-(3-(4-(Thiophen-3-yl)-1H-benzo[d]imidazol-2-yl)-1H-indazol-5-yl)pyridin-3-yl)isobutyramide]",0.013
4,"CN(C)Cc1cncc(-c2ccc3[nH]nc(-c4nc5c(-c6ccsc6)cccc5[nH]4)c3c2)c1 [Compound 253, N,N-Dimethyl-1-(5-(3-(4-(thiophen-3-yl)-1H-benzo[d]imidazol-2-yl)-1H-indazol-5-yl)pyridin-3-yl)methanamine]",0.007
5,"c1cc(-c2ccsc2)c2nc(-c3n[nH]c4ccc(-c5cncc(CN6CCCC6)c5)cc34)[nH]c2c1 [Compound 254, 5-(5-(Pyrrolidin-1-ylmethyl)pyridin-3-yl)-3-(4-(thiophen-3-yl)-1H-benzo[d]imidazol-2-yl)-1H-indazole]",0.002
6,"Nc1cncc(-c2ccc3[nH]nc(-c4nc5c(-c6ccoc6)cccc5[nH]4)c3c2)c1 [Compound 267, 5-(3-(4-(Furan-3-yl)-1H-benzo[d]imidazol-2-yl)-1H-indazol-5-yl) pyridin-3-amine]",≥ 4.15
7,"CC(C)(C)C(=O)Nc1cncc(-c2ccc3[nH]nc(-c4nc5c(-c6ccoc6)cccc5[nH]4)c3c2)c1 [Compound 272, N-(5-(3-(4-(Furan-3-yl)-1H-benzo[d]imidazol-2-yl)-1H-indazol-5-yl)pyridin-3-yl)pivalamide]",0.159
8,"CC(C)Nc1cncc(-c2ccc3[nH]nc(-c4nc5c(-c6ccoc6)cccc5[nH]4)c3c2)c1 [Compound 276, 5-(3-(4-(Furan-3-yl)-1H-benzo[d]imidazol-2-yl)-1H-indazol-5-yl)-N-isopropylpyridin-3-amine]",0.016
9,"c1cc(-c2ccoc2)c2nc(-c3n[nH]c4ccc(-c5cncc(CN6CCCCC6)c5)cc34)[nH]c2c1 [Compound 279, 3-(4-(Furan-3-yl)-1H-benzo[d]imidazol-2-yl)-5-(5-(piperidin-1-ylmethyl)pyridin-3-yl)-1H-indazole]",0.418
10,"CCCC(=O)Nc1cncc(-c2ccc3[nH]nc(-c4nc5c(-c6ccoc6)cccc5[nH]4)c3c2)c1 [Compound 281, N-(5-(3-(4-(Furan-3-yl)-1H-benzo[d]imidazol-2-yl)-1H-indazol-5-yl)pyridin-3-yl)butyramide]",0.025
11,"O=C(Nc1cncc(-c2ccc3[nH]nc(-c4nc5c(-c6ccoc6)cccc5[nH]4)c3c2)c1)C1CC1 [Compound 283, N-(5-(3-(4-(Furan-3-yl)-1H-benzo[d]imidazol-2-yl)-1H-indazol-5-yl)pyridin-3-yl)cyclopropanecarboxamide]",0.057
